According to patent publication US9708316B2 (BRISTOL-MYERS SQUIBB COMPANY, priority 2014, dated 2017):
Read-outs that look alike come from different tables or passages of the source.

What was measured:
HIS-TGFβR1 T204D = molecular target: T1, HIS-TGFβR1 T204D (Homo sapiens, UniProt P36897, T204D); assay: HTRF probe-displacement assay, HIS-TGFβR1 T204D; assay type: binding
T1 sequence (P36897 34-503 T204D): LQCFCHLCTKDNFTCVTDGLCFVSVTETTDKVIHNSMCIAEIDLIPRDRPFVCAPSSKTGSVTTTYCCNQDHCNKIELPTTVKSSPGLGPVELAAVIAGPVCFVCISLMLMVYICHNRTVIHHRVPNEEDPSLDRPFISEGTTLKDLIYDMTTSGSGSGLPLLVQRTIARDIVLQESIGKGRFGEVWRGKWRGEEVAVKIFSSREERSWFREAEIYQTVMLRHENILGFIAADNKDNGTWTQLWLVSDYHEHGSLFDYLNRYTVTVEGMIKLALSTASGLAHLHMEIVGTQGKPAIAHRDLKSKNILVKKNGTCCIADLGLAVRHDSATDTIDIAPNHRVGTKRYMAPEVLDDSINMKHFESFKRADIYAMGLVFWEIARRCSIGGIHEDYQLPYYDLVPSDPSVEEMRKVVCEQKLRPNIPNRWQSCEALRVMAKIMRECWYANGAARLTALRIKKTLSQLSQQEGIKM

HIS-TGFβR2 WT = HIS-TGFβR2 WT (Homo sapiens, UniProt P37173); assay: HTRF probe-displacement assay, HIS-TGFβR2 WT; assay type: binding
HIS-TGFβR2 WT, sequence (P37173 23-567): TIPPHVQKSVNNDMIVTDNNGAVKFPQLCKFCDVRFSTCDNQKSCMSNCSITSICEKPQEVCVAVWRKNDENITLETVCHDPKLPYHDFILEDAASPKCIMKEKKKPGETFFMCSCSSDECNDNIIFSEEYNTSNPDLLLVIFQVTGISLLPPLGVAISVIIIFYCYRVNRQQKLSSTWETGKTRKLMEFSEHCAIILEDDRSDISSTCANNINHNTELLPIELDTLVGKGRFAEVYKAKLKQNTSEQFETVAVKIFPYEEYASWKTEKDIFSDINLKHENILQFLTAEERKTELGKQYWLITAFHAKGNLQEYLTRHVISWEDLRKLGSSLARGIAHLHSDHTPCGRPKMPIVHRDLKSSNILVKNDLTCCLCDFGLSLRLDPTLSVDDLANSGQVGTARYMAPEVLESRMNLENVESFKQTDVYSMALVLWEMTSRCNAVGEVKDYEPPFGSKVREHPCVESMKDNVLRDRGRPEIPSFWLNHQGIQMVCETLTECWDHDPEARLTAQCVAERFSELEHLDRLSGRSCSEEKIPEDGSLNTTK

SMILES | IC50 (HIS-TGFβR1 T204D; read-out: TGFβR1 (μM) IC50) | IC50 (HIS-TGFβR2 WT) | IC50 (HIS-TGFβR1 T204D)
CC(=O)Nc1cc(-c2[nH]c3c(C(C)(C)O)ccnc3c2-c2cccc(C(F)F)n2)ccn1 [Example 154, N-(4-{3-[6-(Difluoromethyl)pyridin-2-yl]-7-(2-hydroxypropan-2-yl)-1H-pyrrolo[3,2-b]pyridin-2-yl}pyridin-2-yl)acetamide] | 0.001 µM | 1.77 µM | –
CC(=O)Nc1cc(-c2[nH]c3cc(Cl)cnc3c2-c2cccc(C)n2)ccn1 [Example 66, N-{4-[6-Chloro-3-(6-methylpyridin-2-yl)-1H-pyrrolo[3,2-b]pyridin-2-yl]pyridin-2-yl}acetamide] | – | 3.72 µM | 0.002 µM
CCN1CCN(CC(=O)Nc2cc(-c3[nH]c4cc(Cl)cnc4c3-c3ccc(OC)cn3)ccn2)CC1 [Example 251, N-(4-(6-Chloro-3-(5-methoxypyridin-2-yl)-1H-pyrrolo[3,2-b]pyridin-2-yl)pyridin-2-yl)-2-(4-ethylpiperazin-1-yl)acetamide] | 0.005 µM | > 15 µM | –
COc1ccc(-c2c(-c3ccnc(NC(C)=O)c3)[nH]c3cc(N4CCCC4)cnc23)nc1 [Example 167, N-(4-(3-(5-Methoxypyridin-2-yl)-6-(pyrrolidin-1-yl)-1H-pyrrolo[3,2-b]pyridin-2-yl)pyridin-2-yl)acetamide] | 0.0171 µM | > 15 µM | –
CC(=O)Nc1cc(-c2[nH]c3cccnc3c2-c2cc(C)ccn2)ccn1 [Example 31, N-{4-[3-(4-Methylpyridin-2-yl)-1H-pyrrolo[3,2-b]pyridin-2-yl]pyridin-2-yl}acetamide] | 0.019 µM | 0.66 µM | –
CC(=O)Nc1cc(-c2[nH]c3c(CO)ccnc3c2-c2cccc(C)n2)ccn1 [Example 279, N-(4-(7-(Hydroxymethyl)-3-(6-methylpyridin-2-yl)-1H-pyrrolo[3,2-b]pyridin-2-yl)pyridin-2-yl)acetamide] | 0.006 µM | 9.9 µM | –
CC(=O)Nc1cc(-c2[nH]c3c(CO)ccnc3c2-c2cccc(C(F)F)n2)ccn1 [Example 142, N-(4-{3-[6-(Difluoromethyl)pyridin-2-yl]-7-(hydroxymethyl)-1H-pyrrolo[3,2-b]pyridin-2-yl}pyridin-2-yl)acetamide] | 0.001 µM | 7.81 µM | –
COc1ccc(-c2c(-c3ccnc(NC(C)=O)c3)[nH]c3cc(Cl)cnc23)cn1 [Example 43, N-{4-[6-Chloro-3-(6-methoxypyridin-3-yl)-1H-pyrrolo[3,2-b]pyridin-2-yl]pyridin-2-yl}acetamide] | 0.002 µM | 0.068 µM | –
CNC(=O)c1ccnc2c(-c3ccc(OC)nc3)c(-c3ccnc(NC(C)=O)c3)[nH]c12 [Example 57, 2-(2-Acetamidopyridin-4-yl)-3-(6-methoxypyridin-3-yl)-N-methyl-1H-pyrrolo[3,2-b]pyridine-7-carboxamide] | 0.019 µM | 0.11 µM | –
COc1cnc(-c2c(-c3ccnc(NC(C)=O)c3)[nH]c3cc(Cl)cnc23)s1 [Example 239, N-(4-(6-Chloro-3-(5-methoxythiazol-2-yl)-1H-pyrrolo[3,2-b]pyridin-2-yl)pyridin-2-yl)acetamide] | 0.0746 µM | 3.28 µM | –
COc1ccc(-c2c(-c3ccnc(NC(C)=O)c3)[nH]c3ccc(F)nc23)nc1 [Example 37, N-{4-[5-Fluoro-3-(5-methoxypyridin-2-yl)-1H-pyrrolo[3,2-b]pyridin-2-yl]pyridin-2-yl}acetamide] | 0.002 µM | > 15 µM | –
COc1cnc2c(-c3cccc(C)n3)c(-c3ccnc(NC(=O)CN4CCN(CCO)CC4)c3)[nH]c2c1 [Example 122, 2-[4-(2-Hydroxyethyl)piperazin-1-yl]-N-{4-[6-methoxy-3-(6-methy 1pyridin-2-yl)-1H-pyrrolo[3,2-b]pyridin-2-yl]pyridin-2-yl}acetamide] | 0.001 µM | > 15 µM | –
CC(=O)Nc1cc(-c2[nH]c3c(C(C)O)ccnc3c2-c2ccc(F)nc2)ccn1 (stereo not drawn) [Example 261, N-(4-(3-(6-Fluoropyridin-3-yl)-7-(1-hydroxyethyl)-1H-pyrrolo[3,2-b]pyridin-2-yl)pyridin-2-yl)acetamide] | 0.005 µM | 0.011 µM | –
COc1cnc2c(-c3nc(C(F)F)cs3)c(-c3ccnc(NC(C)=O)c3)[nH]c2c1 [Example 227, N-(4-(3-(4-(Difluoromethyl)thiazol-2-yl)-6-methoxy-1H-pyrrolo[3,2-b]pyridin-2-yl)pyridin-2-yl)acetamide] | 0.0006 µM | 0.725 µM | –
O=C(CO)Nc1cc(-c2[nH]c3cc(Cl)cnc3c2-c2ccc(F)cn2)ccn1 [Example 72, N-{4-[6-Chloro-3-(5-fluoropyridin-2-yl)-1H-pyrrolo[3,2-b]pyridin-2-yl]pyridin-2-yl}-2-hydroxyacetamide] | 0.008 µM | 1.55 µM | –
